Patent US10945992B1, “Dosage forms of rofecoxib and related methods” (Tremeau Pharmaceuticals, Inc., priority 2019, dated 2021)
Like-named read-outs stand apart in the source and are kept apart here.

Experiment: 101 and 102 PK studies combined (fasted)
Format: in vivo
Details: human, plasma, oral; for half-life: read-out: median t1/2 (converted)
Description: The primary analysis model for data from this trial included data from this trial and that from the 25-mg dose from TRM-201-PK-101 (fasted results only), which were combined via mixed model repeated measures analysis (MMRM) in order to maximize the precision of the estimates. An MMRM analysis on natural log scale was simulated for the 25-mg dose (N=50) data using the between-subject SD of 0.31 from TRM-201-PK-101 and for the estimated 25-mg and 20-mg data that N=20 subjects were expected to yield in this study. The purpose of this simulation was to estimate the SD for the least squares natural log scale mean for the 20-mg dose. […] The subject effect data expected for this study was simulated from the back-calculated variance of the between-subject mean effect (Var (between-subject-mean)=SDbetween^2−SDwithin^2). For the maximum between- and within-SB's 0.31 and 0.12, 1000 simulations yielded an effective SD of 0.21 for the least squares mean of 20 mg, which was used for the following power calculations.
The arithmetic mean AUC0-∞ for 12.5 mg of TRM-201 is 2010 ng·hr/mL. The geometric mean AUC0-∞ for 12.5 mg of TRM-201 is 1880 ng·hr/mL. The arithmetic mean AUC0-∞ for 17.5 mg of TRM-201 is 3290 ng·hr/mL. The geometric mean AUC0-∞ for 17.5 mg of TRM-201 is 3110 ng·hr/mL. The arithmetic mean AUC0-∞ for 20 mg of TRM-201 is 3750 ng·hr/mL. The geometric mean AUC0-∞ for 20 mg of TRM-201 is 3550 ng·hr/mL. The arithmetic mean AUC0-∞ for 25 mg of TRM-201 is 4810 ng·hr/mL. The geometric mean AUC0-∞ for 25 mg of TRM-201 is 4590 ng·hr/mL.
The median time at which the Cmax is observed (Tmax) for 12.5 mg of TRM-201 is 2.00 hours. The median Tmax for 17.5 mg of TRM-201 is 2.00 hours. The Tmax for 20 mg of TRM-201 is 2.00 hours.

**Q.** For `CS(=O)(=O)c1ccc(C2=C(c3ccccc3)C(=O)OC2)cc1` [TRM-201, 4-[4-(methylsulfonyl)phenyl]-3-phenyl-2(5H)-furanone], which AUC(0-inf) (12.5 mg, 101 and 102 studies (FIG. 47), read-out: arithmetic mean AUC0-∞) is on record?
**A.** Its AUC(0-inf) is 2010 ng·h/mL.

**Q.** And the Cmax (12.5 mg, 101 and 102 studies (FIG. 47), read-out: arithmetic mean Cmax)?
**A.** Its Cmax is 151 ng/mL.

**Q.** And the AUC(0-inf) (12.5 mg, 101 and 102 studies (FIG. 47), read-out: geometric mean AUC0-∞)?
**A.** The AUC(0-inf) was 1880 ng·h/mL.

**Q.** What about the Cmax (12.5 mg, 101 and 102 studies (FIG. 47), read-out: geometric mean Cmax) of the same compound?
**A.** Its Cmax is 144 ng/mL.

**Q.** And the half-life (12.5 mg)?
**A.** Its half-life is 12 h.

**Q.** And the AUC(0-inf) (17.5 mg, 101 and 102 studies (FIG. 47), read-out: arithmetic mean AUC0-∞)?
**A.** Its AUC(0-inf) is 3290 ng·h/mL.

**Q.** And the Cmax (17.5 mg, 101 and 102 studies (FIG. 47), read-out: arithmetic mean Cmax)?
**A.** The Cmax was 236 ng/mL.

**Q.** What about the AUC(0-inf) (17.5 mg, 101 and 102 studies (FIG. 47), read-out: geometric mean AUC0-∞) of the same compound?
**A.** Its AUC(0-inf) is 3110 ng·h/mL.

**Q.** What about the Cmax (17.5 mg, 101 and 102 studies (FIG. 47), read-out: geometric mean Cmax) of the same compound?
**A.** The Cmax was 224 ng/mL.

**Q.** And the Tmax (17.5 mg, read-out: median Tmax)?
**A.** The Tmax was 2 h.

**Q.** And the half-life (17.5 mg)?
**A.** Its half-life is 11.7 h.

**Q.** And the AUC(0-inf) (20 mg, 101 and 102 studies (FIG. 47), read-out: arithmetic mean AUC0-∞)?
**A.** The AUC(0-inf) was 3750 ng·h/mL.

**Q.** And the Cmax (20 mg, 101 and 102 studies (FIG. 47), read-out: arithmetic mean Cmax)?
**A.** The Cmax was 277 ng/mL.

**Q.** What about the AUC(0-inf) (20 mg, 101 and 102 studies (FIG. 47), read-out: geometric mean AUC0-∞) of the same compound?
**A.** The AUC(0-inf) was 3550 ng·h/mL.

**Q.** What about the Cmax (20 mg, 101 and 102 studies (FIG. 47), read-out: geometric mean Cmax) of the same compound?
**A.** Its Cmax is 259 ng/mL.

**Q.** And the Tmax (20 mg, read-out: Tmax)?
**A.** The Tmax was 2 h.

**Q.** What about the half-life (20 mg) of the same compound?
**A.** Its half-life is 12.2 h.

**Q.** What about the AUC(0-inf) (25 mg, 101 and 102 studies combined (FIG. 47), read-out: arithmetic mean AUC0-∞) of the same compound?
**A.** The AUC(0-inf) was 4810 ng·h/mL.

**Q.** And the Cmax (25 mg, 101 and 102 studies combined (FIG. 47), read-out: arithmetic mean Cmax)?
**A.** The Cmax was 336 ng/mL.

**Q.** And the AUC(0-inf) (25 mg, 101 and 102 studies combined (FIG. 47), read-out: geometric mean AUC0-∞)?
**A.** Its AUC(0-inf) is 4590 ng·h/mL.

**Q.** What about the Cmax (25 mg, 101 and 102 studies combined (FIG. 47), read-out: geometric mean Cmax) of the same compound?
**A.** The Cmax was 325 ng/mL.

**Q.** And the Tmax (25 mg, 101 and 102 studies combined, read-out: Tmax)?
**A.** Its Tmax is 2.5 h.

**Q.** And the half-life (25 mg, 101 and 102 studies combined)?
**A.** The half-life was 11.6 h.
